Experiments:
Format in all cases: cell-based
[1] = tested on: MCF7 (breast adenocarcinoma); experiment: MTT cytotoxicity assay, solid cancer cell line MCF7; conditions: Homo sapiens, MCF7, 72 h, three days
Experimental: (§1) The compounds were assayed using the following cell lines: G361 (malignant melanoma), MCF7 (breast adenocarcinoma), PLC/PRF/5 (liver hepatoma), PANC-1 (pancreatic carcinoma) and HCT116 (colon carcinoma). All cell lines were grown in DMEM medium supplemented with fetal bovine serum and L-glutamine and maintained at 37° C. in a humidified atmosphere with 5% CO2. For cytotoxicity assays, 4000-10000 cells were seeded into each well of a 96 well plate, allowed to stabilize for at least 16 h and then tested compounds were added at various concentrations ranging from 100 to 0.01 μM in triplicates. After three days, MTT solution (5 mg/ml; Sigma, St. Louis, USA) was added to cells and medium was replaced with DMSO after five hours. The absorbance was measured at 620 nm by employing a microplate reader. MTT assays were repeated 3 times for each drug application and untreated cells were used as reference.

PARP-1 = experiment: Immunoblotting of apoptotic markers in HCT116 cells: PARP-1; conditions: 24 hours, FIG. 4
Experimental: (§2) Effect of novel compounds on apoptosis was confirmed by immunoblotting analysis of selected apoptotic proteins. For immunoblotting, cell were harvested, washed three times with ice-cold PBS and lysed in a buffer (50 mM Tris, pH 7.4, 250 mM NaCl, 5 mM EDTA, 50 mM NaF, 1 mM Na3VO4, 1% Nonidet P40) containing mixture of protease and phosphatase inhibitors (Sigma-Aldrich). 20 μg of total proteins were separated by SDS-polyacrylamide gel electrophoresis (SDS-PAGE) and transferred onto nitrocellulose membranes. Membranes were blocked in 5% milk and 0.1% Tween 20 in PBS and probed overnight with specific antibodies. Specific antibodies were purchased from SigmaAldrich (anti a-tubulin, clone DM1A), Santa Cruz Biotechnology (anti-Mcl-1, clone S-19; anti-PARP, clone F-2; anti-Mdm-2, clone SMP14; anti-Bcl-2), DAKO Cytomation Cell Signaling (anti-PUMA) or were a generous gift from Dr. B. Vojtesek (anti-p53, clone DO-1). All primary antibodies were diluted in PBS containing 5% powdered milk; 0.1% Tween 20. Peroxidase conjugated rabbit anti-mouse immunoglobulin or porcine anti-rabbit immunoglobulin antisera (DAKO) were used as the secondary antibodies and visualised with ECL reagents (GE-Healthcare Life Sciences).

[2] = tested on: MV4;11 (acute myelocytic leukemia); experiment: MTT cytotoxicity assay, leukemic cell line MV4;11; conditions: Homo sapiens, MV4-11, 72 h, three days
Description: (§3) Cytotoxicity of the compounds is the major property determining their antileukemic efficacy in vivo. One of the parameters used, as the basis for cytotoxicity assays, is the metabolic activity of viable cells. For example, a microtiter assay, which uses (3-(4,5-dimethylthiazol-2-yl)-2,5-diphenyltetrazolium bromide (MTT), is widely used to quantitate cell proliferation and cytotoxicity. This assay is widely used in drug screening programs and in chemosensitivity testing. Because only metabolically active living cells reduce MTT to correspond purple formazan dye, these assays detect viable cells exclusively. The quantity of reduced MTT corresponds to the number of vital cells in the culture.
as §1, with “following leukemic” for “following”, “K562 (human chronic myelogenous leukaemia), HL60 (human promyelocytic leukaemia), CEM (human lymphoblastoid leukaemia), THP1 (human monocytic cell line), MV4; 11 (acute myelocytic leukemia).” for “G361 (malignant melanoma), MCF7 (breast adenocarcinoma), PLC/PRF/5 (liver hepatoma), PANC-1 (pancreatic carcinoma) and HCT116 (colon carcinoma).”, “RPMI” for “DMEM”, “2000-5000” for “4000-10000”, “of” for “of a”, “8” for “16”

[3] = tested on: breast carcinoma cell line MCF7; experiment: Cell cycle profile by BrdU/propidium iodide flow cytometry; conditions: asynchronously growing MCF7, 24 h, FIG. 1
Experimental: Sub-confluent cells were treated with test compounds at different concentrations for 24 h. The cultures were pulse-labeled with […] 5-bromo-20-deoxyuridine (BrdU) for 30 min at 37° C. prior to harvesting. The cells were then washed in PBS, fixed with 70% ethanol, and denatured in 2 M HCl. Following neutralization, the cells were stained with anti-BrdU fluorescein-labeled antibodies, washed, stained with propidium iodide and analyzed by flow cytometry using a 488 nm laser

[4] = tested on: CEM (human lymphoblastoid leukaemia); experiment: MTT cytotoxicity assay, leukemic cell line CEM; conditions: Homo sapiens, 72 h, three days
Description: as §3
as §1, with “following leukemic” for “following”, “K562 (human chronic myelogenous leukaemia), HL60 (human promyelocytic leukaemia), CEM (human lymphoblastoid leukaemia), THP1 (human monocytic cell line), MV4; 11 (acute myelocytic leukemia).” for “G361 (malignant melanoma), MCF7 (breast adenocarcinoma), PLC/PRF/5 (liver hepatoma), PANC-1 (pancreatic carcinoma) and HCT116 (colon carcinoma).”, “RPMI” for “DMEM”, “2000-5000” for “4000-10000”, “of” for “of a”, “8” for “16”

[5] = tested on: HL60 (human promyelocytic leukaemia); experiment: MTT cytotoxicity assay, leukemic cell line HL60; conditions: Homo sapiens, HL-60, 72 h, three days
Description: as §3
as §1, with “following leukemic” for “following”, “K562 (human chronic myelogenous leukaemia), HL60 (human promyelocytic leukaemia), CEM (human lymphoblastoid leukaemia), THP1 (human monocytic cell line), MV4; 11 (acute myelocytic leukemia).” for “G361 (malignant melanoma), MCF7 (breast adenocarcinoma), PLC/PRF/5 (liver hepatoma), PANC-1 (pancreatic carcinoma) and HCT116 (colon carcinoma).”, “RPMI” for “DMEM”, “2000-5000” for “4000-10000”, “of” for “of a”, “8” for “16”

[6] = tested on: PANC-1 (pancreatic carcinoma); experiment: MTT cytotoxicity assay, solid cancer cell line PANC-1; conditions: Homo sapiens, PANC-1, 72 h, three days
Experimental: as §1

[7] = tested on: HUVECs (human umbilical vein endothelial cells); experiment: HUVEC proliferation assay (crystal violet); conditions: Homo sapiens, HUVEC, 72 h, read-out: Inhibition of proliferation (EC50)
Experimental: To verify that novel compounds have anti-vascularisation properties, we analyzed their influence on the proliferation and migration of HUVECs. HUVECs (human umbilical vein endothelial cells) were purchased from Promocell (Heidelberg, Germany) and cultured in endothelial cell growth medium (ECGM, Promocell, Heidelberg, Germany) containing 10% FCS (Biochrom, Berlin, Germany). Experiments were performed using cells at passage 3.
For proliferation assay, 1.5×10^3 HUVECs were cultured for 24 h. Afterwards, cells were either left untreated or treated with novel compounds for 72 h. Proliferation assay was performed using crystal violet as described previously (Koltermann et al. 2007, Cell Mol. Life Sci. 64:1715-1722).

[8] = tested on: THP1 (human monocytic cell line); experiment: MTT cytotoxicity assay, leukemic cell line THP1; conditions: Homo sapiens, THP-1, 72 h, three days
Description: as §3
as §1, with “following leukemic” for “following”, “K562 (human chronic myelogenous leukaemia), HL60 (human promyelocytic leukaemia), CEM (human lymphoblastoid leukaemia), THP1 (human monocytic cell line), MV4; 11 (acute myelocytic leukemia).” for “G361 (malignant melanoma), MCF7 (breast adenocarcinoma), PLC/PRF/5 (liver hepatoma), PANC-1 (pancreatic carcinoma) and HCT116 (colon carcinoma).”, “RPMI” for “DMEM”, “2000-5000” for “4000-10000”, “of” for “of a”, “8” for “16”

[9] = tested on: PLC/PRF/5 (liver hepatoma); experiment: MTT cytotoxicity assay, solid cancer cell line PLC/PRF/5; conditions: Homo sapiens, PLC-PRF-5, 72 h, three days
Experimental: as §1

Mcl-1 = experiment: Immunoblotting of apoptotic markers in HCT116 cells: Mcl-1; conditions: 24 hours, FIG. 4
Experimental: as §2

p53 = experiment: Immunoblotting of apoptotic markers in HCT116 cells: p53; conditions: 24 hours, FIG. 4
Experimental: as §2

[10] = tested on: G361 (malignant melanoma); experiment: MTT cytotoxicity assay, solid cancer cell line G361; conditions: Homo sapiens, G-361, 72 h, three days
Experimental: as §1

Compound: CC(C)c1[nH]nc2c(NCc3ccc(-c4ccccn4)cc3)nc(NCC(O)CN)nc12 (stereo not shown) [Compound 45]
- IC50 [1]: 0.31 µM
- PARP-1 cleavage (immunoblot) (PARP-1): appearance of the caspase-3-cleaved PARP-1 fragment at 89 kDa
- IC50 [2]: 0.51 µM
- effect on the cell cycle of MCF7 [3]: potently arrested cells in S, G2 and M phases
- IC50 [4]: 0.54 µM
- IC50 [5]: 0.62 µM
- IC50 [6]: 0.32 µM
- EC50 [7]: 0.176 µM
- IC50 [8]: 0.49 µM
- IC50 [9]: 0.2 µM
- level of anti-apoptotic protein Mcl-1 (immunoblot) (Mcl-1): dose-dependent decrease
- expression of tumor suppressor protein p53 (immunoblot) (p53): rapidly increased the expression
- IC50 [10]: 0.22 µM
